Assay results as given in patent US20110158944A1, “BRAF BIOMARKERS” (priority 2007, published 2011).
Read-outs that look alike come from different tables or passages of the source.

What was measured:
Experiment in all cases: Cell proliferation IC50 (Cell Titer Glo)
Format in all cases: cell-based
8505C = conditions: Homo sapiens, 96 h, read-out: IC50 cell proliferation
Protocol: (§1) IC50 Cell proliferation measurements. Cell proliferation was assessed in the 41 tumor cell lines set forth in Table 2 after 4 days of continuous exposure to either the ERK1/2 inhibitor, compound a or the MEK inhibitor compound b (PD0325901) using Promega Cell Titer Glo reagent (Promega Corp, Madison, Wis.). Promega's CellTiter-Glo™ Luminescent Cell Viability Assay is a sensitive method for assaying cell proliferation using a stable form of luciferase to measure ATP as an indicator of viable cells. This reagent allows a homogeneous method of determining cell number by quantitation of ATP. The luciferase luminescent signal produced is proportional to the number of viable cells present in culture.
(§2) A 1000× compound dose response curve, containing 8 dilutions of each compound, was prepared on a 96-well plate. Compounds were diluted in 100% DMSO to the following (1000×) concentrations: compound b: 1000 μM, 333 μM, 111 μM, 37 μM, 12 μM, 4.1 μM, 1.4 μM and 0.5 μM; compound a: 3000 μM, 1000 μM, 333 μM, 111 μM, 37 μM, 12 μM, 4.1 μM and 1.4 μM. This compound source plate was sealed and kept frozen between uses.
(§3) Cells were grown in RPMI 1640 medium supplemented with 10% Fetal Bovine Serum, 2 mM Glutamine and non-essential amino acids or DMEM/F12 Media containing the same supplements. On day zero, cells were trypsinized, counted and plated into wells of a 96-well Wallac TC Isoplate (Perkin-Elmer Wallac, Gaithersburg, Md.) at a density of 1500-2000 cells per well in 50 μl of complete media. An additional 6-8 replicate well of the cells at the same density were plated on a separate Wallac TC Isoplate. This plate was developed on day 1 to determine the cell-growth baseline.
(§4) On day 1 of treatment, compound was diluted to 2× in media and immediately added to the cells as follows: one ml of media was added to each well of a deep-well 96-well plate and 2 μl of 1000× compound was added with mixing to make 2× compound in media. 50 μl of the media containing 2× compound was added to the cell plates in duplicate points so the final concentrations for each well were as outlined in Table 1. The plates were then returned to a 37° C. incubator and left undisturbed for 4 days. The day 1 (baseline) plates were developed by first adding 50 μl media (without compound) to bring the volume in each well to 100 μl, then adding 100 μl of Cell Titer Glo reagent (as below).
(§5) After four days of treatment, the plates were developed with Cell Titer Glo (CTG) reagent (Promega Corp.; Madison, Wis.). Reagent was reconstituted as described in the product insert. 100 μl of reagent was added to all treatment and control wells and the plates were gently shaken for 5 minutes then incubated an additional 5 minutes before reading in an Analyst AD (Molecular Devices Corporation; Sunnyvale, Calif.) using the Luminescence settings.
(§6) Data was analyzed in Excel using XLfit 4.2, fit model #205 (Dose Response One Site)

A204 = conditions: Homo sapiens, read-out: IC50 cell proliferation
Protocol: as §1, §2, §3, §4, §5, §6

A375 = conditions: Homo sapiens, A-375, 96 h, read-out: IC50 cell proliferation
Protocol: as §1, §2, §3, §4, §5, §6

A673 = conditions: Homo sapiens, read-out: IC50 cell proliferation
Protocol: as §1, §2, §3, §4, §5, §6

ES-2 = conditions: Homo sapiens, read-out: IC50 cell proliferation
Protocol: as §1, §2, §3, §4, §5, §6

H292 = conditions: Homo sapiens, NCI-H292, 96 h, read-out: IC50 cell proliferation
Protocol: as §1, §2, §3, §4, §5, §6

HT-144 = conditions: Homo sapiens, read-out: IC50 cell proliferation
Protocol: as §1, §2, §3, §4, §5, §6

HT-29 = conditions: Homo sapiens, read-out: IC50 cell proliferation
Protocol: as §1, §2, §3, §4, §5, §6

Hs294T = conditions: Homo sapiens, Hs 294T, 96 h, read-out: IC50 cell proliferation
Protocol: as §1, §2, §3, §4, §5, §6

Hs746T = conditions: Homo sapiens, 96 h, read-out: IC50 cell proliferation
Protocol: as §1, §2, §3, §4, §5, §6

LOX = conditions: Homo sapiens, 96 h, read-out: IC50 cell proliferation
Protocol: as §1, §2, §3, §4, §5, §6

M14 = conditions: Homo sapiens, read-out: IC50 cell proliferation
Protocol: as §1, §2, §3, §4, §5, §6

N-87 = conditions: Homo sapiens, 96 h, read-out: IC50 cell proliferation
Protocol: as §1, §2, §3, §4, §5, §6

SK-Mel-5 = conditions: Homo sapiens, read-out: IC50 cell proliferation
Protocol: as §1, §2, §3, §4, §5, §6

U-937 = conditions: Homo sapiens, read-out: IC50 cell proliferation
Protocol: as §1, §2, §3, §4, §5, §6

WiDr = conditions: Homo sapiens, 96 h, read-out: IC50 cell proliferation
Protocol: as §1, §2, §3, §4, §5, §6

## O=C(NOC[C@H](O)CO)c1ccc(F)c(F)c1Nc1ccc(I)cc1F [cpd. b, PD0325901]
8505C
  IC50: 10 nM
A204; A204, 96 h
  IC50: 1000 nM
A375
  IC50: 5 nM
A673; A673, 96 h
  IC50: 1000 nM
ES-2; ES-2, 96 h
  IC50: 1000 nM
H292
  IC50: 5 nM
HT-144; HT-144, 96 h
  IC50: 10 nM
HT-29; HT-29, 96 h
  IC50: 20 nM
Hs294T
  IC50: 71 nM
Hs746T
  IC50: 7 nM
LOX
  IC50: 57 nM
M14; M14, 96 h
  IC50: 3 nM
N-87
  IC50: 64 nM
SK-Mel-5; SK-MEL-5, 96 h
  IC50: 8 nM
U-937; U-937, 96 h
  IC50: 1000 nM
WiDr
  IC50: 6 nM

## O=C(Nc1ccc2[nH]nc(-c3ccncc3)c2c1)C1CCN(CC(=O)N2CCN(c3ccc(-c4ncccn4)cc3)CC2)C1 (centres unmarked) [cpd. a]
8505C; Thyroid, BRAF V600E Homozygous, 4 days continuous exposure
  IC50: 50 nM
A204; 96 h, A204, Rhabdomyosarcoma, BRAF V600V Wild type, 4 days continuous exposure
  IC50: > 3000 nM
A375; A375, Melanoma, BRAF V600E Homozygous, 4 days continuous exposure
  IC50: 75 nM
A673; 96 h, A673, Rhabdomyosarcoma, BRAF V600E Heterozygous, 4 days continuous exposure
  IC50: > 3000 nM
ES-2; 96 h, ES-2, Ovarian, BRAF V600E Heterozygous, 4 days continuous exposure
  IC50: 2660 nM
H292; H292, Lung, BRAF V600V Wild type, 4 days continuous exposure
  IC50: 90 nM
HT-144; 96 h, HT-144, Melanoma, BRAF V600E Homozygous, 4 days continuous exposure
  IC50: 60 nM
HT-29; 96 h, HT-29, Colon, BRAF V600E Heterozygous, 4 days continuous exposure
  IC50: 50 nM
Hs294T; Hs294T, Melanoma, BRAF V600E Heterozygous, 4 days continuous exposure
  IC50: 1720 nM
Hs746T; Gastric, BRAF V600V Wild type, 4 days continuous exposure
  IC50: 125 nM
LOX; Melanoma, BRAF V600E Homozygous, 4 days continuous exposure
  IC50: 100 nM
M14; 96 h, M14, Melanoma, BRAF V600E Homozygous, 4 days continuous exposure
  IC50: 40 nM
N-87; N-87, Gastric, BRAF V600V Wild type, 4 days continuous exposure
  IC50: 307 nM
SK-Mel-5; 96 h, SK-Mel-5, Melanoma, BRAF V600E Heterozygous, 4 days continuous exposure
  IC50: 66 nM
U-937; 96 h, U-937, Leukemia, BRAF V600V Wild type, 4 days continuous exposure
  IC50: > 3000 nM
WiDr; Colon, BRAF V600E Heterozygous, 4 days continuous exposure
  IC50: 39 nM
